Results reported in patent publication US10654818B2, “Furane derivatives as inhibitors of ATAD2” (BAYER PHARMA AKTIENGESELLSCHAFT, priority 2015, dated 2020).
pIC50: −log10 of the molar value.

Biological target: T1, recombinant, N-terminally GST-tagged ATAD2 bromodomain amino acids 981-1108 (Homo sapiens, UniProt Q6PL18)
T1 construct: ATAD2 bromodomain amino acids 981-1108; made in house; host or cells: E. coli
T1 sequence (Q6PL18 981-1108): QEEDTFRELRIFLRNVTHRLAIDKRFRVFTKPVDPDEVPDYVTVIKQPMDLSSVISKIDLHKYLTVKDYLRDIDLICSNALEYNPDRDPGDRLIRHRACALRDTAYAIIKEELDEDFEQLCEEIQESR
Assay: TR-FRET assay: disruption of the interaction between ATAD2 and acetylated Histone H4 (Ac-H4) peptide
Type: binding
Settings: inhibition of ATAD2/Ac-H4 complex formation; 10 nM ATAD2, 50 nM Ac-H4 peptide
From the text: The ability of the compounds described in the present invention to disrupt the interaction between ATAD2 and acetylated Histone H4 (Ac-H4) was used as quantitative measure of their ATAD2-binding affinities.
To this end a TR-FRET assay which detects the binding of an Ac-H4-derived synthetic peptide (purchased from e.g. Biosyntan (Berlin, Germany)) of sequence HSGRGKGGGGKGLGK(Ac)GGAKRHRK-Biotin to recombinant, N-terminally GST-tagged ATAD2 bromodomain amino acids 981-1108. The protein was produced in-house via E. coli expression followed by GSH-Sepharose affinity- and Superdex S200-size exclusion chromatography purification.
Typically, 11 different concentrations of each compound (0.1 nM, 0.33 nM, 1.1 nM, 3.8 nM, 13 nM, 44 nM, 0.15 μM, 0.51 μM, 1.7 μM, 5.9 μM and 20 μM) were tested in duplicate within the same microtiter plate. To this end, 100-fold concentrated compound solutions (in DMSO) were previously prepared with a Precision Pippeting System (BioTek) by serial dilution (1:3.4) of 2 mM stocks in clear, low-volume 384-well microtiter source plates (Greiner Bio-One). Subsequently, 50 nl of compounds were transferred into black, low-volume test plates from the same supplier using a Hummingbird capillary based liquid handling instrument (Digilab). Tests were started by the addition of 2 μl of 2.5-fold concentrated ATAD2 solution (25 nM=10 nM final concentration in the 5 μl assay volume) in aqueous assay buffer [50 mM HEPES pH 7.5, 50 mM potassium fluoride (KF), 100 mM sodium chloride (NaCl), 0.25 mM CHAPS, 0.05% bovine serum albumine (BSA) and 1 mM dithiothreitol (DTT)] to the compounds in the test plate with a Multidrop dispenser (Thermo-Fisher). Test plates were then incubated 10′ at 22° C., in order to allow pre-equilibration of putative compound-ATAD2 complexes. Subsequently, 3 μl of a 1.67-fold concentrated solution containing Ac-H4 peptide (83.5 nM=50 nM final concentration) and TR-FRET detection reagents [16.7 nM Anti-GST-XL665 (Cisbio), =10 nM final concentration and 4.17 nM Lance EU W-1024 Streptavidin Europium Chelate (Perkin-Elmer)=2.5 nM final concentration were dispensed into the plates.
The mixture was further incubated in the dark for 1 hour at 22° C. Finally the inhibition of the formation of ATAD2/Ac-H4 complexes was assessed by measurement of the resonance energy transfer from the Streptavidin-Eu-Chelate to the anti-GST-XL665 antibody present in the reaction. To this end, the fluorescence emissions at 622 nm and 665 nm after excitation at 337 nm were measured in a TR-FRET reader, e.g. a Rubystar or Pherastar (both from BMG Lab Technologies) or a Viewlux (Perkin-Elmer) and the ratio of the emissions at 665 nm and at 622 nm was taken as indicator for the amount of ATAD2/Ac-H4 complexes in equilibrium.
The data were normalized using two sets of control wells (16 each). The first accounted for 100% ATAD2/Ac-H4 binding (0% inhibition), and contained all reaction components but DMSO instead of inhibitors. The second represented 0% ATAD2/Ac-H4 binding (100% inhibition), and included all assay components except ATAD2. IC50 values were calculated by fitting the normalized inhibition data to a 4-parameter logistic equation using either Screener software (Genedata) or a Bayer-proprietary analysis software.

Row | SMILES | pIC50
1 | Cc1ccc([C@@H](C)NCc2ccc(-c3ccc(Cl)c(C(=O)N[C@@H](CCN4CCN(C)CC4)Cc4ccc(C#N)cc4)c3)o2)cc1 [Example 25, 2-chloro-N-[(2R)-1-(4-cyanophenyl)-4-(4-methylpiperazin-1-yl)butan-2-yl]-5-[5-({[(1R)-1-(4-methylphenyl)ethyl]amino}methyl)-2-furyl]benzamide] | 6.45
2 | Cc1ccc([C@@H](C)NCc2ccc(-c3ccc(Cl)c(C(=O)N[C@@H](CNC4CCNC(C)(C)C4)Cc4ccc(C#N)cc4)c3)o2)cc1 (mixture of isomers) [Example 68] | 6.96
3 | Cc1ccc([C@@H](C)NCc2ccc(-c3ccc(Cl)c(C(=O)N[C@@H](CNCc4ccccc4)Cc4ccc(C#N)cc4)c3)o2)cc1 [Example 60] | 5.72
4 | C[C@@H](NCc1ccc(-c2ccc(Cl)c(C(=O)N[C@@H](CN)Cc3ccc(C#N)cc3)c2)o1)c1ccc(C(F)(F)F)cc1 [Example 75, N-[(2R)-1-amino-3-(4-cyanophenyl)propan-2-yl]-2-chloro-5-{5-[({(1R)-1-1-[4-(trifluoromethyl)phenyl]ethyl}amino)methyl]-2-furyl}benzamide] | 6.25
5 | CC(C)(NCc1ccc(-c2ccc(Cl)c(C(=O)N[C@@H](CN)Cc3ccc(C#N)cc3)c2)o1)c1ccc(C(F)(F)F)cc1 [Example 74, N-[(2R)-1-amino-3-(4-cyanophenyl)propan-2-yl]-2-chloro-5-{5-[({2-[4-(trifluoro-methyl)phenyl]propan-2-yl}amino)methyl]-2-furyl}benzamide] | 6.17
6 | Cc1ccc([C@@H](C)NCc2ccc(-c3ccc(Cl)c(C(=O)N[C@H](Cc4ccc(C#N)cc4)C(=O)NC4CCN(C)CC4)c3)o2)cc1 [Example 30, Nα-{2-chloro-5-[5-({[(1R)-1-(4-methylphenyl)ethyl]amino}methyl)-2-furyl]benzoyl}-4-cyano-N-(1-methylpiperidin-4-yl)-D-phenylalaninamide] | 6.60
7 | CCN1CCC(NC[C@@H](Cc2ccc(C#N)cc2)NC(=O)c2cc(-c3ccc(CN[C@H](C)c4ccc(C)cc4)o3)ccc2Cl)CC1 [Example 62] | 6.48
8 | COc1cc(Cl)c(C(=O)N[C@@H](CN)Cc2ccc(C#N)c(C)c2)cc1-c1ccc(CN[C@H](C)c2ccc(C)cc2)o1 [Example 84, N-[(2R)-1-amino-3-(4-cyano-3-methylphenyl)propan-2-yl]-2-chloro-4-methoxy-5-[5-({[(1R)-1-(4-methylphenyl)ethyl]amino}methyl)-2-furyl]benzamide] | 6.57
9 | Cc1ccc([C@@H](C)NCc2ccc(-c3ccc(Cl)c(C(=O)N[C@@H](CC(=O)NC(C)C)Cc4ccc(C#N)cc4)c3)o2)cc1 [Example 6, 2-chloro-N-[(2R)-1-(4-cyanophenyl)-4-(isopropylamino)-4-oxobutan-2-yl]-5-[5-({[(1R)-1-(4-methylphenyl)ethyl]amino}methyl)-2-furyl]benzamide] | 6.18
10 | COc1cc(Cl)c(C(=O)N[C@H](Cc2ccc(C#N)cc2)C(=O)N[C@H]2CC[C@H](N)CC2)cc1-c1ccc(CN[C@H](C)c2ccc(C)cc2)o1 [Example 85, N-(trans-4-aminocyclohexyl)-Nα-{2-chloro-4-methoxy-5-[5-({[(1R)-1-(4-methylphenyl)ethyl]amino}methyl)-2-furyl]benzoyl}-4-cyano-D-phenylalaninamide] | 6.38
11 | Cc1ccc([C@@H](C)NCc2ccc(-c3ccc(Cl)c(C(=O)N[C@@H](CC(=O)NCCO)Cc4ccc(C#N)cc4)c3)o2)cc1 [Example 7, 2-chloro-N-{(2R)-1-(4-cyanophenyl)-4-[(2-hydroxyethyl)amino]-4-oxobutan-2-yl}-5-[5-({[(1R)-1-(4-methylphenyl)ethyl]amino}methyl)-2-furyl]benzamide] | 6.08
12 | Cc1ccc([C@@H](C)NCc2ccc(-c3ccc(Cl)c(C(=O)N[C@@H](CNC(=O)CC4CCNCC4)Cc4ccc(C#N)cc4)c3)o2)cc1 [Example 57, 2-chloro-N-{(2R)-1-(4-cyanophenyl)-3-[(piperidin-4-ylacetyl)amino]propan-2-yl}-5-[5-({[(1R)-1-(4-methylphenyl)ethyl]amino}methyl)-2-furyl]benzamide] | 6.28
13 | Cc1ccc([C@@H](C)NCc2ccc(-c3ccc(Cl)c(C(=O)N[C@@H](CCNC(C)C)Cc4ccc(C#N)cc4)c3)o2)cc1 [Example 26, 2-chloro-N-[(2R)-1-(4-cyanophenyl)-4-(isopropylamino)butan-2-yl]-5-[5-({[(1R)-1-(4-methylphenyl)ethyl]amino}methyl)-2-furyl]benzamide] | 6.48
14 | CNC(=O)C[C@@H](Cc1ccccc1)NC(=O)c1cc(-c2ccc(CN[C@H](C)c3ccc(C)cc3)o2)ccc1Cl [Example 92] | 5.08
15 | Cc1ccc([C@@H](C)NCc2ccc(-c3ccc(Cl)c(C(=O)N[C@@H](CNCC4CCNCC4)Cc4ccc(C#N)cc4)c3)o2)cc1 [Example 69] | 6.95
16 | Cc1ccc([C@@H](C)NCc2ccc(-c3ccc(Cl)c(C(=O)N[C@@H](CNCCO)Cc4ccc(C#N)cc4)c3)o2)cc1 [Example 23, 2-chloro-N-{(2R)-1-(4-cyanophenyl)-3-[(2-hydroxyethyl)amino]propan-2-yl}-5-[5-({[(1R)-1-(4-methylphenyl)ethyl]amino}methyl)-2-furyl]benzamide] | 6.25
17 | Cc1ccc([C@@H](C)NCc2ccc(-c3ccc(Cl)c(C(=O)N[C@@H](CO)Cc4cccc(C#N)c4)c3)o2)cc1 [Example 44, 2-chloro-N-[(2R)-1-(3-cyanophenyl)-3-hydroxypropan-2-yl]-5-[5-({[(1R)-1-(4-methylphenyl)ethyl]amino}methyl)-2-furyl]benzamide] | 5.80
18 | Cc1ccc([C@@H](C)NCc2ccc(-c3ccc(Cl)c(C(=O)N[C@@H](CNC4CCN(C(=O)OC(C)(C)C)CC4)Cc4ccc(C#N)cc4)c3)o2)cc1 [Example 64] | 5.93
19 | Cc1ccc([C@@H](C)NCc2ccc(-c3ccc(Cl)c(C(=O)N[C@@H](CCN4CCN(C)C[C@H]4C)Cc4ccc(C#N)cc4)c3)o2)cc1 [Example 32, 2-chloro-N-{(2R)-1-(4-cyanophenyl)-4-[(2R)-2,4-dimethylpiperazin-1-yl]butan-2-yl}-5-[5-({[(1R)-1-(4-methylphenyl)ethyl]amino}methyl)-2-furyl]benzamide] | 6.89
20 | Cc1ccc([C@@H](C)NCc2ccc(-c3ccc(Cl)c(C(=O)N[C@@H](CCN4CCN[C@H](C)C4)Cc4ccc(C#N)cc4)c3)o2)cc1 [Example 27, 2-chloro-N-{(2R)-1-(4-cyanophenyl)-4-[(3R)-3-methylpiperazin-1-yl]butan-2-yl}-5-[5-({[(1R)-1-(4-methylphenyl)ethyl]amino}methyl)-2-furyl]benzamide] | 6.94
21 | Cc1ccc([C@@H](C)NCc2ccc(-c3ccc(Cl)c(C(=O)N[C@H](Cc4ccc(C#N)cc4)CN4CCCC4)c3)o2)cc1 [Example 49, 2-chloro-N-[(2R)-1-(4-cyanophenyl)-3-(pyrrolidin-1-yl)propan-2-yl]-5-[5-({[(1R)-1-(4-methylphenyl)ethyl]amino}methyl)-2-furyl]benzamide] | 5.75
22 | COc1cc(Cl)c(C(=O)N[C@@H](CN[C@H]2CC[C@@H](N)CC2)Cc2ccc(C#N)cc2)cc1-c1ccc(CN[C@H](C)c2ccc(C)cc2)o1 [Example 87, N-[(2R)-1-[(4-aminocyclohexyl)amino]-3-(4-cyanophenyl)propan-2-yl]-2-chloro-4-methoxy-5-[5-({[(1R)-1-(4-methylphenyl)ethyl]amino}methyl)-2-furyl]benzamide] | 6.67
23 | Cc1ccc([C@@H](C)NCc2ccc(-c3ccc(Cl)c(C(=O)N[C@H](Cc4ccc(C#N)cc4)C(N)=O)c3)o2)cc1 [Example 2, Nα-{2-chloro-5-[5-({[(1R)-1-(4-methylphenyl)ethyl]amino}methyl)-2-furyl]benzoyl}-4-cyano-D-phenylalaninamide] | 6.02
